Results: patent US5430062A, “Stilbene derivatives as anticancer agents” (priority 1993, dated 1995)
Like-named read-outs stand apart in the source and are kept apart here.

Key:
MCF-7 breast carcinoma = assay: MTT cytotoxicity assay, MCF-7; conditions: for IC50: Homo sapiens, MCF7, […]
tubulin = assay: Inhibition of tubulin polymerization (turbidimetry); format: biochemical, bovine
[1] = test system: HT-29 colon adenocarcinoma; assay: MTT cytotoxicity assay, HT-29; conditions: for IC50: Homo sapiens, HT-29, […]
SKMEL-5 melanoma = assay: MTT cytotoxicity assay, SKMEL-5; conditions: for IC50: Homo sapiens, SK-MEL-5, […], read-out: Cytotoxicity ED50, SKMEL-5
A-549 lung carcinoma = assay: MTT cytotoxicity assay, A-549; conditions: for IC50: Homo sapiens, A549, […]
MLM melanoma = assay: MTT cytotoxicity assay, MLM
[2] = read-out: Cytotoxicity ED50, MCF-7
[3] = second series (Tables V-VII, IX), read-out: Inhibition of Tubulin Polymerization IC50 (±S.D.)
[4] = read-out: Cytotoxicity ED50, HT-29
[5] = read-out: Cytotoxicity ED50, A-549
[6] = read-out: Cytotoxicity ED50, MLM
[7] = first series (Table VIII and text), 37° C., 20 min, read-out: Tubulin polymerization IC50 (±S.D.)

Row | SMILES | IC50 (MCF-7 breast carcinoma; [2]) [nM] | IC50 (tubulin; [3]) [µM] | IC50 [1, 4] [nM] | IC50 (SKMEL-5 melanoma) [nM] | IC50 (A-549 lung carcinoma; [5]) [nM] | IC50 (MLM melanoma; [6]) [µM] | inhibition of tubulin polymerization (in words) (tubulin) | IC50 (tubulin; [7]) [µM] | cytotoxicity relative to 5a (in words) (MCF-7 breast carcinoma; MCF cell culture) | cytotoxicity relative to 5a (in words) ([1]; HT-29 cells) | cytotoxicity relative to 5a (in words) (SKMEL-5 melanoma; SKMEL-5 cells) | cytotoxicity relative to parent (in words) (A-549 lung carcinoma; A-549) | cytotoxicity relative to parent (in words) (MLM melanoma; MLM) | IC50 (MCF-7 breast carcinoma; read-out: Cytotoxicity ED50, MCF-7, MCF-7, MTT, six days) [nM] | IC50 ([1]; read-out: Cytotoxicity ED50, HT-29, HT-29, MTT, six days) [nM] | IC50 (A-549 lung carcinoma; read-out: Cytotoxicity ED50, A-549, A-549, MTT, six days) [nM] | IC50 (MLM melanoma; read-out: Cytotoxicity ED50, MLM, MLM, MTT, six days) [µM] | inhibition of tubulin polymerization (class) (tubulin)
1 | COc1ccc(C(=O)c2c3cc(OC)c(OC)c(OC)c3cc[n+]2C)cc1 [compound 40, 1-(4'-Methoxybenzoyl)-5,6,7-trimethoxyisoquinoline Methiodide] | > 25000 | > 40 | > 25000 | > 25000 | > 25000 | > 25 |  |  |  |  |  |  |  |  |  |  |  | 
2 | COc1cc(CCc2cc(OC)c(OC)c(OC)c2)cc(OC)c1 [compound 8s] | > 25000 |  | > 25000 | > 25000 | > 25000 | > 25 | lower activity |  |  |  |  |  |  |  |  |  |  | 
3 | COc1ccc(CNc2cc(OC)c(OC)c(OC)c2)cc1 [12c, 4-Methoxy-N-(3,4,5-trimethoxyphenyl)benzylamine] | 860 |  | 2240 | 1130 | 830 | > 25 | lower inhibitory activity | > 50 |  |  |  |  |  |  |  |  |  | 
4 | COc1cc(/C=C\c2ccc(SC)cc2)cc(OC)c1OC [compound 15c, (Z)-1-(4-Methylthiophenyl)-2-(3,4,5-trimethoxyphenyl)ethene] | 5.4 | 6.2 | 0.018 | 0.004 | 0.19 | 0.0033 |  |  | about one order of magnitude less cytotoxic than 5a | about one order of magnitude more potent | two orders of magnitude more potent | as cytotoxic as the parent compound | as cytotoxic as the parent compound |  |  |  |  | 
5 | COC(=O)/C(=C/c1cccc(OC)c1)c1cc(OC)c(OC)c(OC)c1 [compound 24b, (E)-Methyl 3-(3-methoxyphenyl)-2-(3,4,5-trimethoxy-phenyl)-prop-2-enoate] | 1300 | > 40 | 700 | 1500 | 1300 | 15.5 |  |  |  |  |  |  |  |  |  |  |  | 
6 | COc1ccc(C2Cc3cc(OC)c(OC)c(OC)c3C2)cc1 (stereo not drawn) [compound 35, 2-(4-Methoxyphenyl)-4,5,6-trimethoxyindane] | > 25000 | > 40 | 12800 | 19500 | > 25000 | > 25 |  |  |  |  |  |  |  |  |  |  |  | 
7 | COc1ccc(/C=C/c2cc(OC)c(OC)c(OC)c2)cc1 [compound 6a, (E)-1-(4-Methoxyphenyl)-2-(3,4,5-trimethoxyphenyl)ethene] |  |  |  | 810 |  |  |  | > 50 |  |  |  |  |  | 1050 | 1820 | 1180 | 2.07 | 
8 | COc1ccc(Cc2cc(OC)c(OC)c(OC)c2)cc1 [compound 29, 4-Methoxyphenyl-(3,4,5-trimethoxyphenyl)methane] | 19 | 15 | 13 | 12 | 150 | 0.13 |  |  |  |  |  |  |  |  |  |  |  | 
9 | COc1ccc(C(=O)c2nccc3c(OC)c(OC)c(OC)cc23)cc1 [compound 39, 1-(4'-Methoxybenzoyl)-5,6,7-trimethoxyisoquinoline] | > 25000 | > 40 | > 25000 | > 25000 | > 25000 | > 25 |  |  |  |  |  |  |  |  |  |  |  | 
10 | COc1ccc(/C=C\c2ccc(OC)c(OC)c2OC)cc1 [5d, (Z)-1-(4-Methoxyphenyl)-2-(2,3,4-trimethoxy-phenyl)ethene] | 230 |  | 1000 | 1100 | 970 | 10.9 |  |  |  |  |  |  |  |  |  |  |  | inactive
11 | COc1ccc2c(ccc3cc(OC)c(OC)c(OC)c32)c1 [32c, 2,3,4,7-Tetramethoxyphenanthrene] | > 25000 | > 40 | > 25000 | > 25000 | > 25000 | > 25 |  |  |  |  |  |  |  |  |  |  |  | 
12 | COc1ccc(C2Cc3cc(OC)c(OC)c(OC)c3C2=O)cc1 (stereo not drawn) [compound 34, 2-(4-Methoxyphenyl)-4,5,6-trimethoxyindan-3-one] | > 25000 | > 40 | > 25000 | > 25000 | > 25000 | > 25 |  |  |  |  |  |  |  |  |  |  |  | 
